Experimental data from the Kinase Knowledgebase extract (Sharma et al. 2016).
Several values for one entry are separate records, joined by “and”; a condition that tells them apart may be missing. Equal entries are not always repeated.

Biological target: MAPK14 (UniProt Q16539)
Assay: Inhibition of MAPK14 Kinase Activity

MAPK14, sequence (Q16539 whole entry, looked up): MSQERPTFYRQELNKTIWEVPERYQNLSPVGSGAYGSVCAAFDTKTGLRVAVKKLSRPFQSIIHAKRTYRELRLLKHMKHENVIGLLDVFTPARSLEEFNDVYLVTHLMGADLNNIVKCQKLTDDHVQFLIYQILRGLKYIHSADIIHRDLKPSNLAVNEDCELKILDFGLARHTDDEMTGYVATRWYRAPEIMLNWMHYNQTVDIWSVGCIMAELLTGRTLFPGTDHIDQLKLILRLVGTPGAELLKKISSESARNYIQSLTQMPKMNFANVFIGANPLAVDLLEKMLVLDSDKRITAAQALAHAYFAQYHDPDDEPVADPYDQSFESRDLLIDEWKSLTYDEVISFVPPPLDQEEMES

Row | Structure (SMILES) | IC50
1 | Cn1nc(C(C)(C)C)cc1NC(=O)Nc1ccc(CN2CCN(C(=O)c3c(F)cccc3F)CC2)cc1 | 0.01 µM and < 5 µM
2 | Cc1ccc(-n2nc(C(C)(C)C)cc2NC(=O)Nc2ccc(OCC3CCN(C(=O)c4c(Cl)cccc4Cl)CC3)c3ccccc23)cc1 | < 5 µM
3 | Cn1nc(C(C)(C)C)cc1NC(=O)Nc1cc(F)cc(OC2CCN(C(=O)c3c(F)cccc3F)CC2)c1 | < 5 µM
4 | CC(=O)N1CCN(Cc2ccc(NC(=O)Nc3cc(C(C)(C)C)nn3C)cc2)CC1 | < 5 µM
5 | Cn1nc(C(C)(C)C)cc1NC(=O)Nc1ccc(CN2CCN(C(=O)c3ccc(F)cc3F)CC2)cc1 | < 5 µM
6 | CC(C)(C)c1cc(NC(=O)Nc2ccc(CN3CCN(C(=O)c4c(F)cccc4F)CC3)c(F)c2)n(C(C)(C)C)n1 | < 5 µM
7 | Cn1nc(C(C)(C)C)cc1NC(=O)Nc1cccc(OC2CCN(C(=O)c3c(Cl)cncc3Cl)CC2)c1 | < 5 µM
8 | Cc1ccsc1C(=O)N1CCC(Oc2ccc(NC(=O)Nc3cc(C(C)(C)C)nn3C)cc2)CC1 | < 5 µM
9 | Cn1nc(C(C)(C)C)cc1NC(=O)Nc1ccc(OC2CCN(C(=O)c3ccccc3)CC2)cc1 | < 5 µM
10 | Cc1ccc(-n2nc(C(C)(C)C)cc2NC(=O)Nc2ccc(N3CCN(C(=O)C4(C)CC4)CC3)cc2)cc1 | < 5 µM
11 | Cc1ccc(-n2nc(C(C)(C)C)cc2NC(=O)Nc2ccc(OC3CCN(C(=O)c4c(Cl)cccc4Cl)CC3)c3ccccc23)cc1 | < 5 µM
12 | CC(C)n1nc(C(C)(C)C)cc1NC(=O)Nc1ccc(CN2CCN(C(=O)c3c(F)cccc3F)CC2)cc1 | < 5 µM
13 | Cn1nc(C(C)(C)C)cc1NC(=O)Nc1ccc(OC2CCN(C(=O)C3CC3)CC2)cc1 | < 5 µM
14 | Cn1nc(C(C)(C)C)cc1NC(=O)Nc1cc(F)cc(OC2CCN(C(=O)C3CC3)CC2)c1 | < 5 µM
15 | COc1ccc(C(=O)N2CCC(Oc3ccc(NC(=O)Nc4cc(C(C)(C)C)nn4C)cc3)CC2)c(OC)n1 | < 5 µM
16 | Cc1ccc(-n2nc(C(C)(C)C)cc2NC(=O)Nc2ccc(N3CCN(C(=O)C(C)C)CC3)cc2)cc1 | < 5 µM
17 | Cn1nc(C(C)(C)C)cc1NC(=O)Nc1ccc(OC2CCN(C(=O)c3c[nH]cn3)CC2)cc1 | < 5 µM
18 | CC(C)(C)c1cc(NC(=O)Nc2ccc(OC3CCN(C(=O)c4ccccc4Cl)CC3)cc2)[nH]n1 | < 5 µM
19 | Cc1ccc(-n2nc(C(C)(C)C)cc2NC(=O)NC2CCN(C(=O)c3ccc(S(C)(=O)=O)cc3)CC2)cc1 | < 5 µM
20 | Cn1nc(C(C)(C)C)cc1NC(=O)Nc1ccc(OC2CCN(C(=O)c3ccncc3)CC2)cc1 | < 5 µM
21 | Cn1nc(C(C)(C)C)cc1NC(=O)Nc1ccc(OC2CCN(C(=O)c3ccc(Cl)nc3)CC2)cc1 | < 5 µM

Row | Structure (SMILES) | IC50
22 | Cn1nc(C(C)(C)C)cc1NC(=O)Nc1ccc(N2CCN(C(=O)c3c(F)cccc3F)CC2)cc1 | < 5 µM
23 | CO[C@H](C)C(=O)N1CCN(c2ccc(NC(=O)Nc3cc(C(C)(C)C)nn3-c3ccc(C)cc3)cc2)CC1 | < 5 µM
24 | Cn1nc(C(C)(C)C)cc1NC(=O)Nc1ccc(C(=O)N2CCN(Cc3ccncc3)CC2)cc1 | < 5 µM
25 | Cn1nc(C(C)(C)C)cc1NC(=O)Nc1ccc(CN2CCN(C(=O)c3ccccc3Cl)CC2)cc1 | < 5 µM
26 | Cn1nc(C(C)(C)C)cc1NC(=O)Nc1ccc(OC2CCN(C(=O)c3ccccc3Cl)CC2)cc1 | < 5 µM
27 | Cn1nc(C(C)(C)C)cc1NC(=O)Nc1cc(F)cc(OC2CCN(C(=O)c3cc4ccccc4[nH]3)CC2)c1 | < 5 µM
28 | Cn1nc(C(C)(C)C)cc1NC(=O)Nc1ccc(OC2CCN(C(=O)C3CCCC3)CC2)cc1 | < 5 µM
29 | CC(C)n1nc(C(C)(C)C)cc1NC(=O)Nc1ccc(CN2CCN(C(=O)c3c(Cl)cccc3Cl)CC2)cc1F | < 5 µM
30 | Cn1nc(C(C)(C)C)cc1NC(=O)Nc1ccc(CN2CCN(C(=O)c3ccncc3)CC2)cc1 | < 5 µM
31 | Cn1nc(C(C)(C)C)cc1NC(=O)Nc1ccc(CN2CCN(C(=O)c3ccc(F)cc3Cl)CC2)cc1 | < 5 µM
32 | Cc1ccc(-n2nc(C(C)(C)C)cc2NC(=O)Nc2cc(F)cc(OC3CCN(C(=O)C4CC4)CC3)c2)cc1 | < 5 µM
33 | Cn1nc(C(C)(C)C)cc1NC(=O)Nc1ccc(CN2CCN(C(=O)c3c(F)cccc3F)CC2)cc1F | < 5 µM
34 | Cn1nc(C(C)(C)C)cc1NC(=O)Nc1cccc(OC2CCN(C(=O)c3ccccc3OC(F)(F)F)CC2)c1 | < 5 µM
35 | Cn1nc(C(C)(C)C)cc1NC(=O)Nc1cccc(OC2CCN(C(=O)c3c(F)cccc3Cl)CC2)c1 | < 5 µM
36 | Cn1nc(C(C)(C)C)cc1NC(=O)Nc1cc(F)cc(OC2CCN(C(N)=O)CC2)c1 | < 5 µM
37 | Cc1ccc(-n2nc(C(C)(C)C)cc2NC(=O)Nc2ccc(N3CCN(C(=O)C4CCC4)CC3)cc2)cc1 | < 5 µM
38 | Cn1nc(C(C)(C)C)cc1NC(=O)Nc1cc(F)cc(OC2CCN(C(=O)c3ccccc3F)CC2)c1 | < 5 µM
39 | Cn1nc(C(C)(C)C)cc1NC(=O)Nc1ccc(CN2CCN(C(=O)c3c(F)cccc3F)CC2)c(F)c1 | < 5 µM
40 | COc1ncccc1C(=O)N1CCC(Oc2ccc(NC(=O)Nc3cc(C(C)(C)C)nn3C)cc2)CC1 | < 5 µM
41 | Cn1nc(C(C)(C)C)cc1NC(=O)Nc1cc(F)cc(OC2CCN(C(=O)C3CC3(Cl)Cl)CC2)c1 (centres undefined) | < 5 µM

Now from value to molecule:

Row | IC50 | Structure (SMILES)
42 | < 5 µM | Cn1nc(C(C)(C)C)cc1NC(=O)Nc1cccc(OC2CCN(C(=O)c3ccccc3F)CC2)c1
43 | < 5 µM | Cn1nc(C(C)(C)C)cc1NC(=O)Nc1cc(F)cc(OC2CCN(C(=O)c3ccccc3Cl)CC2)c1
44 | < 5 µM | CCn1nc(C(C)(C)C)cc1NC(=O)Nc1ccc(CN2CCN(C(=O)c3ccc(F)cc3F)CC2)cc1F
45 | < 5 µM | Cn1nc(C(C)(C)C)cc1NC(=O)Nc1cc(F)cc(OC2CCN(C(=O)c3ccc4[nH]ccc4c3)CC2)c1
46 | < 5 µM | Cc1cc(C(=O)N2CCC(Oc3cccc(NC(=O)Nc4cc(C(C)(C)C)nn4C)c3)CC2)c(C)[nH]1
47 | < 5 µM | Cc1ccc(-n2nc(C(C)(C)C)cc2NC(=O)Nc2ccc(N3CCN(C(=O)C4CCOC4)CC3)cc2)cc1 (centres undefined)
48 | < 5 µM | Cn1nc(C(C)(C)C)cc1NC(=O)Nc1ccc(OC2CCN(C(=O)C(C)(C)C)CC2)cc1
49 | < 5 µM | Cn1nc(C(C)(C)C)cc1NC(=O)Nc1cccc(OC2CCN(C(=O)c3ccccc3)CC2)c1
50 | < 5 µM | Cn1nc(C(C)(C)C)cc1NC(=O)Nc1ccc(OC2CCN(C(=O)c3c(Cl)cncc3Cl)CC2)cc1
51 | < 5 µM | COc1ccc(C(=O)N2CCC(Oc3cc(F)cc(NC(=O)Nc4cc(C(C)(C)C)nn4C)c3)CC2)c(OC)n1
52 | < 5 µM | Cn1nc(C(C)(C)C)cc1NC(=O)Nc1cccc(OC2CCN(C(=O)c3c(F)cccc3F)CC2)c1
53 | < 5 µM | Cc1ccc(-n2nc(C(C)(C)C)cc2NC(=O)Nc2ccc(N3CCN(C(=O)c4c(Cl)cccc4Cl)CC3)cc2)cc1
54 | < 5 µM | COc1cccc(F)c1C(=O)N1CCC(Oc2cc(F)cc(NC(=O)Nc3cc(C(C)(C)C)nn3C)c2)CC1
55 | < 5 µM | Cc1ccsc1C(=O)N1CCC(Oc2cccc(NC(=O)Nc3cc(C(C)(C)C)nn3C)c2)CC1
56 | < 5 µM | CC(C)n1nc(C(C)(C)C)cc1NC(=O)Nc1ccc(CN2CCN(C(=O)c3ccc(F)cc3F)CC2)c(F)c1
57 | < 5 µM | Cn1nc(C(C)(C)C)cc1NC(=O)Nc1cc(F)cc(OC2CCN(C(=O)c3ccccc3)CC2)c1
58 | < 5 µM | Cn1nc(C(C)(C)C)cc1NC(=O)Nc1cc(F)cc(OC2CCN(C(=O)c3cccc4[nH]ccc34)CC2)c1
59 | < 5 µM | Cc1ccc(-n2nc(C(C)(C)C)cc2NC(=O)Nc2ccc(N3CCN(C(=O)C4CC4C)CC3)cc2)cc1 (centres undefined)
60 | < 5 µM | Cn1nc(C(C)(C)C)cc1NC(=O)Nc1cc(F)cc(OC2CCN(C(=O)c3ccc4cc[nH]c4c3)CC2)c1
61 | < 5 µM | Cn1nc(C(C)(C)C)cc1NC(=O)Nc1ccc(CN2CCN(C(=O)c3ccc(F)cc3F)CC2)cc1F
62 | < 5 µM | COc1ccc(C(=O)N2CCC(Oc3ccc(NC(=O)Nc4cc(C(C)(C)C)nn4C)cc3)CC2)cn1
63 | < 5 µM | Cn1nc(C(C)(C)C)cc1NC(=O)Nc1ccc(OC2CCN(C(=O)c3cn[nH]c3)CC2)cc1

Row | IC50 | Structure (SMILES)
64 | < 5 µM | Cn1nc(C(C)(C)C)cc1NC(=O)Nc1cc(F)cc(OC2CCN(C(=O)c3sccc3Cl)CC2)c1
65 | < 5 µM | CN1CCN(Cc2ccc(C(=O)N3CCC(Oc4cc(F)cc(NC(=O)Nc5cc(C(C)(C)C)nn5C)c4)CC3)cc2)CC1
66 | < 5 µM | Cc1ccc(-n2nc(C(C)(C)C)cc2NC(=O)Nc2ccc(N3CCN(C(N)=O)CC3)cc2)cc1
67 | 0.019 µM | Cn1nc(C(C)(C)C)cc1NC(=O)Nc1cc(F)cc(OC2CCN(C(=O)C(C)(C)C)CC2)c1
68 | < 5 µM | Cn1nc(C(C)(C)C)cc1NC(=O)Nc1ccc(OC2CCN(C(=O)c3cc[nH]c3)CC2)cc1
69 | < 5 µM | Cc1ccc(-n2nc(C(C)(C)C)cc2NC(=O)Nc2ccc(N3CCN(C(=O)C4CC4)CC3)cc2)cc1
70 | < 5 µM | COc1ccccc1C(=O)N1CCN(Cc2ccc(NC(=O)Nc3cc(C(C)(C)C)nn3C)cc2)CC1
71 | < 5 µM | Cn1nc(C(C)(C)C)cc1NC(=O)Nc1cc(F)cc(OC2CCN(C(=O)c3c[nH]c4ccccc34)CC2)c1
72 | < 5 µM | Cn1nc(C(C)(C)C)cc1NC(=O)Nc1ccc(CN2CCN(C(=O)c3ccc(F)cc3)CC2)cc1
73 | < 5 µM | CC(C)C(=O)N1CCC(Oc2ccc(NC(=O)Nc3cc(C(C)(C)C)nn3C)cc2)CC1
74 | < 5 µM | Cn1nc(C(C)(C)C)cc1NC(=O)Nc1ccc(CN2CCN(C(=O)c3cccnc3)CC2)cc1
75 | < 5 µM | COc1ccc(C(=O)N2CCC(Oc3cccc(NC(=O)Nc4cc(C(C)(C)C)nn4C)c3)CC2)c(OC)n1
76 | < 5 µM | Cn1nc(C(C)(C)C)cc1NC(=O)Nc1cc(F)cc(OC2CCN(C(=O)c3c(F)cccc3Cl)CC2)c1
77 | < 5 µM | CCn1nc(C(C)(C)C)cc1NC(=O)Nc1ccc(CN2CCN(C(=O)c3c(F)cccc3F)CC2)cc1
78 | < 5 µM | Cn1nc(C(C)(C)C)cc1NC(=O)Nc1ccc(OC2CCN(S(C)(=O)=O)CC2)cc1
79 | < 5 µM | Cn1nc(C(C)(C)C)cc1NC(=O)Nc1ccc(CN2CCN(C(=O)c3ccccc3)CC2)cc1
80 | < 5 µM | Cn1nc(C(C)(C)C)cc1NC(=O)Nc1ccc(OC2CCN(C(=O)c3ccc(Cl)s3)CC2)cc1
81 | < 5 µM | Cn1nc(C(C)(C)C)cc1NC(=O)Nc1ccc(OC2CCN(C(=O)C3(c4ccccc4)CC3)CC2)cc1
82 | < 5 µM | Cn1nc(C(C)(C)C)cc1NC(=O)Nc1ccc(CN2CCN(C(=O)c3ccc(Cl)cc3Cl)CC2)cc1
83 | < 5 µM | Cn1nc(C(C)(C)C)cc1NC(=O)Nc1cc(OC2CCN(C(=O)c3c(F)cccc3F)CC2)cc(C(F)(F)F)c1
84 | < 5 µM | Cn1nc(C(C)(C)C)cc1NC(=O)Nc1cc(F)cc(OC2CCN(C(=O)c3c(Cl)cccc3Cl)CC2)c1
